Laboratory results published in US20190336494A1, “[…] COMPOUNDS FOR TREATING AGITATION” (Concert Pharmaceuticals, Inc., priority 2015, published 2019).

How the values were obtained:
[1] = Effect of quinidine on metabolic stability in extensive metabolizer human liver microsomes; assay type: in vitro ADME; settings: EM HLM
Protocol: Materials: Individual donor with extensive metabolizer human liver microsomes (EM HLM, 20 mg/mL) with CYP2D6 activity of 957±19 pmol/mg protein/min, genotyped for CYP2D6 allelic variant-CYP2D6*1/*2x2, were obtained from Xenotech, LLC (Lenexa, Kans.). β-nicotinamide adenine dinucleotide phosphate, reduced form (NADPH), magnesium chloride (MgCl2), dimethyl sulfoxide (DMSO), acetonitrile (ACN), quinidine, and dextromethorphan (DM) were purchased from Sigma-Aldrich. Dimemorfan and d6-dimemorfan (Compound 100) were synthesized by Adesis, Inc.
Determination of Metabolic Stability: 1.0 mg/mL stock solutions of test compounds dextromethorphan, dimemorfan, and d6-dimemorfan (Compound 100) were prepared in DMSO. The 1.0 mg/mL stock solutions were diluted to 10,000 ng/mL in acetonitrile (ACN). A 10 mM stock solution of quinidine was prepared in acetonitrile, which was then diluted further in acetonitrile to produce 20 μM, 10 μM, 5 μM, 2.5 μM, and 1.25 μM solutions of quinidine. The human liver microsomes were diluted to 1.25 mg/mL in 0.1 M potassium phosphate buffer, pH 7.4, containing 3 mM MgC12. The diluted microsomes were added to wells of a 96-well deep-well polypropylene plate in triplicate. A 5 μL aliquot of each 10,000 ng/mL test compound was added to the microsomes, and the mixture was pre-warmed at 37° C. for 7 minutes, then a 5 μL aliquot of each quinidine solution was added (except in control wells where no quinidine was added). Reactions were initiated by addition of pre-warmed NADPH solution to the mixture. The final reaction volume was 0.5 mL and contained 1.0 mg/mL human liver microsomes, 100 ng/mL of test compound, 0.2, 0.1, 0.05, 0.025, 0.0125, or 0 μM of quinidine, and 2 mM NADPH in 0.1 M potassium phosphate buffer, pH 7.4, and 3 mM MgCl2. The reaction mixtures were incubated at 37° C., and 50 μL aliquots were removed at 0, 15, 30, and 60 minutes and added to shallow-well 96-well plates which contained 50 μL of ice-cold ACN with internal standard to stop the reactions. The plates were stored at 4° C. for 20 minutes after which 100 μL of water was added to the wells of the plate before centrifugation to pellet precipitated proteins. Supernatants were transferred to another 96-well plate and analyzed for amounts of parent remaining by LC-MS/MS using an Applied Bio-systems mass spectrometer. Amount of parent remaining was quantified via standard curve.
The in vitro t1/2's for test compounds were calculated from the slopes of the linear regression of % parent remaining (In) vs. incubation time relationship. • in vitro t1/2=0.693/k • k=-[slope of linear regression of % parent remaining(In) vs incubation time]
The apparent intrinsic clearance was calculated using the following equation:
CLint (mL/min/kg)=(0.693/in vitro t1/2) (Incubation Volume/mg of microsomes)
(45 mg microsomes/gram of liver) (20 gm of liver/kg b.w.)
(§1) Data analysis was performed using Microsoft Excel Software.

[2] = Metabolic stability of test compounds using human liver microsomes; assay type: in vitro ADME; settings: for half-life at 1 µM: human, pH 7.4, 1.0 mg/mL HLM, 1 μM test compound, 2 mM NADPH, 37° C., 0-30 minutes, read-out: Ave. t1/2 (n = 2), calculated half-life in human liver microsomes; for Change over non-deuterated compound (t1/2): vs Dimemorfan
Protocol: Example 4. Determination of Metabolic Stability of Test Compounds using Human Liver Microsomes. Human liver microsomes (20 mg/mL) were obtained from Xenotech, LLC (Lenexa, Kans.). β-nicotinamide adenine dinucleotide phosphate, reduced form (NADPH), magnesium chloride (MgCl2), and dimethyl sulfoxide (DMSO) were purchased from Sigma-Aldrich.
7.5 mM stock solutions of test compounds were prepared in DMSO. The 7.5 mM stock solutions were diluted to 50 μM in acetonitrile (ACN). The 20 mg/mL human liver microsomes were diluted to 1.25 mg/mL (1 mg/mL final) in 0.1 M potassium phosphate buffer, pH 7.4, containing 3 mM MgCl2. The diluted microsomes (375 μL) were added to wells of a 96-well polypropylene plate in triplicate. 10 μL of the 50 μM test compound was added to the microsomes and the mixture was pre-warmed for 10 minutes. Reactions were initiated by addition of 125 μL of pre-warmed NADPH solution. The final reaction volume was 0.5 mL and contained 1.0 mg/mL human liver microsomes, 1 μM test compound, and 2 mM NADPH in 0.1 M potassium phosphate buffer, pH 7.4, and 3 mM MgCl2. The reaction mixtures were incubated at 37° C., and 50 μL aliquots were removed at 0, 5, 10, 20, and 30 minutes and added to shallow 96-well plates which contained 50 μL of ice-cold ACN with internal standard to stop the reactions. The plates were stored at 4° C. for 20 minutes after which 100 μL of water was added to the wells of the plate before centrifugation to pellet precipitated proteins. Supernatants were transferred to another 96-well plate and analyzed for amounts of parent remaining by LC-MS/MS using an Applied Bio-systems API 4000 mass spectrometer.
7-ethoxy coumarin was used as a positive control.
The in vitro t1/2s for test compounds were calculated from the slopes of the linear regression of % parent remaining (In) vs incubation time relationship:
in vitro t 1/2=0.693/k, where k=-[slope of linear regression of % parent remaining(In) vs incubation time]
as §1

Structure (SMILES)	% Δ (D6-Dimemorfan/Dimemorfan), deuterium effect on half-life ([1]; Quinidine 0 μM) [%]	Ratio (D6-Dimemorfan/Dimemorfan) of Clint, app ([1]; Quinidine 0 μM)	% Δ (D6-Dimemorfan/Dimemorfan), deuterium effect on half-life ([1]; Quinidine 0.0125 μM) [%]	Ratio (D6-Dimemorfan/Dimemorfan) of Clint, app ([1]; Quinidine 0.0125 μM)	% Δ (D6-Dimemorfan/Dimemorfan), deuterium effect on half-life ([1]; Quinidine 0.025 μM) [%]	Ratio (D6-Dimemorfan/Dimemorfan) of Clint, app ([1]; Quinidine 0.025 μM)	% Δ (D6-Dimemorfan/Dimemorfan), deuterium effect on half-life ([1]; Quinidine 0.05 μM) [%]	Ratio (D6-Dimemorfan/Dimemorfan) of Clint, app ([1]; Quinidine 0.05 μM)	% Δ (D6-Dimemorfan/Dimemorfan), deuterium effect on half-life ([1]; Quinidine 0.1 μM) [%]	Ratio (D6-Dimemorfan/Dimemorfan) of Clint, app ([1]; Quinidine 0.1 μM)	% Δ (D6-Dimemorfan/Dimemorfan), deuterium effect on half-life ([1]; Quinidine 0.2 μM) [%]	Ratio (D6-Dimemorfan/Dimemorfan) of Clint, app ([1]; Quinidine 0.2 μM)	half-life at 1 µM [2] [min]	Change over non-deuterated compound (t1/2) [2] [%]
[2H]C([2H])([2H])c1ccc2c(c1)[C@]13CCCC[C@@H]1[C@H](C2)N(C([2H])([2H])[2H])CC3 [Compound 100, (+)-3-(Methyl-d3)-17-(methyl-d3)-(9α, 13α, 14α)-morphinan]	35	0.74	59	0.61	3	0.96	11	0.90	22	0.82	−12	1.11	31.6	37
[2H]C([2H])([2H])c1ccc2c(c1)[C@]13CCCC[C@@H]1[C@H](C2)N(C)CC3 [Compound 102, (+)-3-(Methyl-d3)-17-methyl-(9α, 13α, 14α)-morphinan]	–	–	–	–	–	–	–	–	–	–	–	–	28	21
Cc1ccc2c(c1)[C@]13CCCC[C@@H]1[C@H](C2)N(C)CC3 [Dimemorfan, (+)-(9α, 13α, 14α)-3,17-dimethylmorphinan, reference compound]	–	–	–	–	–	–	–	–	–	–	–	–	23.1	–
